Experimental data from US20240239801A1, “PYRIMIDO[5,4,D]PYRIMIDINE COMPOUNDS, COMPOSITIONS COMPRISING THEM AND USES THEREOF” (Université de Montréal, priority 2021, published 2024).
pEC50: −log10 of the molar value. Read-outs that look alike come from different tables or passages of the source.

Assays:
Assay in all cases: Proliferation inhibition, CellTiter-Glo
Type in all cases: cell-based, human
SW620 = conditions: Table D-2, 3 days, read-out: SW620 Prolif. EC50
Experimental: (§1) All cancer cell lines (A375, A101D, A2058, RKO, HT29 SK-MEL 30, IPC298, HepG2, HCT-116, Lovo, SW620, SW480, NCI-H358, NCI-H2122, Calu-6, NCIH2087, NCIH1755, NCIH1666 and Mewo) were obtained from ATCC and cultured in RPMI-1640 medium (Gibco) supplemented with 5% heat inactivated fetal bovine serum (FBS, Wisent) at 37° C. under 5% CO2. Cells were maintained in T175 flasks (Greiner). They were passaged by removing the culture medium, washing once in 10 mL of room temperature Phosphate Buffered Saline (PBS; Wisent) and incubating at 37° C. with 2 mL of 0.05% Trypsin (Thermo-Fisher). Trypsin was then inactivated by adding complete growth medium and the cells were then replated in a T175 culture dish at the appropriate dilution. All cell lines were routinely tested for mycoplasma contamination. Tissue type and mutational status of each cell line can be found in Table B.
(§2) CellTiter-Glo® viability analysis was conducted on cells plated in […] of complete RPMI-1640 growth medium in 96-well flat-bottomed white opaque plates (Greiner or Corning) at a density indicated in Table E (for each CCL, number of cells plated per well of a 96-well plate to perform the CellTiter-Glo® cell viability assay). The cell density in cells/cm^2 would correspond to cell number divided by the area of one well of a 96-well plate (0.32 cm^2). Cells were maintained overnight at 37° C. under 5% CO2 before treatment with compounds' dilution series for 3 days.
(§3) In a dilution series 100 μL/well of test substance dilution prepared in complete RPMI-1640 growth media was added to the cells plated initially in 100 μL of growth media. The dilution series is selected so that ten concentrations cover a range from 30 μM or 10 μM to […]. If necessary (as in the case of A375 cells, which were more sensitive to the compounds) the initial concentration of 10 μM is lowered to 1 μM and further dilution is carried out accordingly. The final concentration of DMSO in the assay is set to 0.5%.
(§4) After 3 days of incubation, the growth media were removed by aspiration and 60 μL of diluted CellTiter-Glo® reagent (10 μL CellTiter-Glo® reagent+50 μL of PBS) was added to each well. Cells were allowed to lyse and to equilibrate in CellTiter-Glo® reagent by 5 min incubation on a plate shaker followed by 10 min incubation at room temperature. Luminescence signals were then acquired on a Synergy Neo2 plate reader (Biotek).
(§5) The effect of each compound dilution on the proliferation of cancer cell lines was expressed in % inhibition and calculated as follows. An internal 100% inhibition control (1 μM of trametinib; cat. No. HY-10999; MedChem Express; CAS No. 871700-17-3) was included in each plate and used as a measure of CellTiter-Glo® signal background. The value obtained for trametinib was subtracted from each data point. The average of DMSO (vehicle) controls (set as 0% inhibition) was established and used to calculate % inhibition:
(§6) The ability of each compound to inhibit proliferation was expressed as a EC50 value obtained by plotting the effect values for each data point of a dilution series and fitting the obtained curves using a log(agonist) versus response−variable slope (four parameters) function using GraphPadPrism (V7.0) or Dotmatics Screening Ultra platform.

RKO = conditions: Table D-1, 3 days, read-out: RKO Prolif. EC50
Experimental: as §1, §2, §3, §4, §5, §6

Calu6 = conditions: Table D-2, 3 days, read-out: Calu6 Prolif. EC50
Experimental: as §1, §2, §3, §4, §5, §6

IPC298 = conditions: Table D-1, 3 days, read-out: IPC298 Prolif. EC50
Experimental: as §1, §2, §3, §4, §5, §6

HT-29 = conditions: Table D-1, 3 days, read-out: HT-29 Prolif. EC50
Experimental: as §1, §2, §3, §4, §5, §6

NCIH1755 = conditions: Table D-2, 3 days, read-out: NCIH1755 Prolif. EC50
Experimental: as §1, §2, §3, §4, §5, §6

A375 = conditions: Table D-1, 3 days, read-out: A375 Prolif. EC50
Experimental: as §1, §2, §3, §4, §5, §6

HepG2 = conditions: Table D-1, 3 days, read-out: HepG2 Prolif. EC50
Experimental: as §1, §2, §3, §4, §5, §6

NCIH2087 = conditions: Table D-2, 3 days, read-out: NCIH2087 Prolif. EC50
Experimental: as §1, §2, §3, §4, §5, §6

SK-MEL30 = conditions: Table D-1, 3 days, read-out: SK-MEL30 Prolif. EC50
Experimental: as §1, §2, §3, §4, §5, §6

SW480 = conditions: Table D-2, 3 days, read-out: SW480 Prolif. EC50
Experimental: as §1, §2, §3, §4, §5, §6

Lovo = conditions: Table D-2, 3 days, read-out: Lovo Prolif. EC50
Experimental: as §1, §2, §3, §4, §5, §6

NCI-H358 = conditions: Table D-2, 3 days, read-out: NCI-H358 Prolif. EC50
Experimental: as §1, §2, §3, §4, §5, §6

HCT116 = conditions: Table D-1, 3 days, read-out: HCT116 Prolif. EC50
Experimental: as §1, §2, §3, §4, §5, §6

Mewo = conditions: Table D-2, 3 days, read-out: Mewo Prolif. EC50
Experimental: as §1, §2, §3, §4, §5, §6

NCI-H2122 = conditions: Table D-2, 3 days, read-out: NCI-H2122 Prolif. EC50
Experimental: as §1, §2, §3, §4, §5, §6

A2058 = conditions: Table D-1, 3 days, read-out: A2058 Prolif. EC50
Experimental: as §1, §2, §3, §4, §5, §6

A101D = conditions: Table D-1, 3 days, read-out: A101D Prolif. EC50
Experimental: as §1, §2, §3, §4, §5, §6

Row | Structure (SMILES) | pEC50 (SW620; Homo sapiens, SW-620, 72 h) | pEC50 (RKO; Homo sapiens, RKO, 72 h) | pEC50 (Calu6; Homo sapiens, Calu-6, 72 h) | pEC50 (IPC298; Homo sapiens, IPC-298, 72 h) | pEC50 (SW620) | pEC50 (RKO) | pEC50 (Calu6) | pEC50 (HT-29) | pEC50 (A2058) | pEC50 (A375) | pEC50 (A101D) | pEC50 (HepG2) | pEC50 (NCIH2087) | pEC50 (SK-MEL30) | pEC50 (SW480) | pEC50 (Lovo) | pEC50 (NCI-H358) | pEC50 (HCT116) | pEC50 (Mewo) | pEC50 (NCI-H2122) | further results
1 | Cc1ccc2c(Nc3cccc(Cl)c3F)nccc2c1NC(=O)c1csc2c(N)ncnc12 [Belvarafenib, reference compound] | 5.52 to 6.52 | > 6.52 | > 6.52 | > 6.52 |  |  |  |  |  |  |  |  |  |  |  |  |  |  |  |  | pEC50 (HT-29; Homo sapiens, HT-29, 72 h): > 6.52; pEC50 (NCIH1755; Homo sapiens, NCI-H1755, 72 h): < 5.52; pEC50 (A375; Homo sapiens, A-375, 72 h): > 6.52; pEC50 (HepG2; Homo sapiens, HepG2, 72 h): > 6.52; pEC50 (NCIH2087; Homo sapiens, NCI-H2087, 72 h): > 6.52; pEC50 (SK-MEL30; Homo sapiens, SK-MEL-30, 72 h): > 6.52; pEC50 (SW480; Homo sapiens, SW480, 72 h): 5.52 to 6.52; pEC50 (Lovo; Homo sapiens, LoVo, 72 h): > 6.52; pEC50 (NCI-H358; Homo sapiens, NCI-H358, 72 h): 5.52 to 6.52; pEC50 (HCT116; Homo sapiens, HCT-116, 72 h): 5.52 to 6.52; pEC50 (Mewo; Homo sapiens, MeWo, 72 h): 5.52 to 6.52; pEC50 (NCI-H2122; Homo sapiens, NCI-H2122, 72 h): 5.52 to 6.52
2 | Cc1c(F)cccc1S(=O)(=O)Nc1ccc(F)c(Nc2ncnc3cnc(-n4cc(C(=O)N(C)Cc5ccncc5)c5ccccc54)nc23)c1F [Example 98] |  |  |  |  | 5.52 to 6.52 | > 6.52 | > 6.52 | > 6.52 | > 6.52 | > 6.52 | > 6.52 | > 6.52 | > 6.52 | > 6.52 | 5.52 to 6.52 | > 6.52 | > 6.52 | > 6.52 | > 6.52 | 5.52 to 6.52 | pEC50 (IPC298): > 6.52; pEC50 (NCIH1755): > 6.52
3 | COc1ccc(S(=O)(=O)Nc2ccc(F)c(Nc3ncnc4cnc(-n5cnc6c(N)cccc65)nc34)c2F)c(C)c1Cl [Example 112] |  |  |  |  | 5.52 to 6.52 | > 6.52 | 5.52 to 6.52 | > 6.52 | > 6.52 | > 6.52 | > 6.52 | > 6.52 | 5.52 to 6.52 | > 6.52 | 5.52 to 6.52 | > 6.52 | > 6.52 | 5.52 to 6.52 | 5.52 to 6.52 | 5.52 to 6.52 | 
4 | Cc1c(F)cccc1S(=O)(=O)Nc1ccc(F)c(Nc2ncnc3cnc(-n4cnc5c(-c6cccnc6)cccc54)nc23)c1F [Example 114] | < 5.52 | > 6.52 | < 5.52 | > 6.52 |  |  |  |  |  |  |  |  |  |  |  |  |  |  |  |  | pEC50 (HT-29; Homo sapiens, HT-29, 72 h): > 6.52; pEC50 (A2058; Homo sapiens, A2058, 72 h): > 6.52; pEC50 (NCIH1755; Homo sapiens, NCI-H1755, 72 h): < 5.52; pEC50 (A375; Homo sapiens, A-375, 72 h): > 6.52; pEC50 (A101D; Homo sapiens, A101D, 72 h): > 6.52; pEC50 (HepG2; Homo sapiens, HepG2, 72 h): > 6.52; pEC50 (NCIH2087; Homo sapiens, NCI-H2087, 72 h): 5.52 to 6.52; pEC50 (SK-MEL30; Homo sapiens, SK-MEL-30, 72 h): 5.52 to 6.52; pEC50 (SW480; Homo sapiens, SW480, 72 h): < 5.52; pEC50 (Lovo; Homo sapiens, LoVo, 72 h): > 6.52; pEC50 (NCI-H358; Homo sapiens, NCI-H358, 72 h): > 6.52; pEC50 (HCT116; Homo sapiens, HCT-116, 72 h): 5.52 to 6.52; pEC50 (Mewo; Homo sapiens, MeWo, 72 h): 5.52 to 6.52; pEC50 (NCI-H2122; Homo sapiens, NCI-H2122, 72 h): < 5.52
5 | O=S(=O)(Nc1ccc(F)c(Nc2ncnc3cnc(-n4cnc5c(N6CCC7(CCCO7)CC6)cccc54)nc23)c1F)c1cccc(Cl)c1Cl [Example 129] |  |  |  |  | 5.52 to 6.52 | > 6.52 | 5.52 to 6.52 | > 6.52 | > 6.52 | > 6.52 | > 6.52 | > 6.52 | 5.52 to 6.52 | > 6.52 | 5.52 to 6.52 | > 6.52 | > 6.52 | 5.52 to 6.52 | > 6.52 | 5.52 to 6.52 | pEC50 (IPC298): > 6.52; pEC50 (NCIH1755): 5.52 to 6.52
